This note sets out measurements from ChEMBL document CHEMBL3414484, “Novel imidazole derivatives as heme oxygenase-1 (HO-1) and heme oxygenase-2 (HO-2) inhibitors and their cytotoxic activity in human-derived cancer cell lines” (Eur J Med Chem, 2015).

Molecules are shown by their SMILES. A value given as a limit tells only on which side of the number the result lay.

The target of one assay is T1, Heme oxygenase 2 (Rattus norvegicus, UniProt P23711).
T1 sequence (P23711 whole entry): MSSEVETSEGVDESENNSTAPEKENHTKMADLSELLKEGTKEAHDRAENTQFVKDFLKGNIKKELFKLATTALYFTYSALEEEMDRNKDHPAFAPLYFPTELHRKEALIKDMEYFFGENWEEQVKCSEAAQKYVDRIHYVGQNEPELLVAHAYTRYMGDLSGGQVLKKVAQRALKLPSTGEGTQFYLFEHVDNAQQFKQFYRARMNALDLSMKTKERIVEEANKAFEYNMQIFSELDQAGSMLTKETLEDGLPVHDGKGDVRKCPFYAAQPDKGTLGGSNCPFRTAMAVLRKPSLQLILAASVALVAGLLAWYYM
Kind of assay: Inhibition of HO2 in Sprague-Dawley rat brain microsomal fraction assessed as reduction in bilirubin formation incubated for 60 mins by double beam spectrophotometry.

The subject of a further assay is MDA-MB-231. Kind of assay: Cytotoxicity against human MDA-MB-231 cells incubated for 72 hrs by sulforhodamine B assay. Particulars: MDA-MB-231, 72 h. Format: functional, cell-based. (In general: Sulforhodamine B stains cellular protein and so reports cell mass.)
Another assay concerns MCF7. Kind of assay: Cytotoxicity against human MCF7 cells incubated for 72 hrs by sulforhodamine B assay. Format: functional, cell-based. As to conditions: MCF7, 72 h.
In assay [1] the test system is DU-145. Kind of assay: Cytotoxicity against human DU145 cells incubated for 72 hrs by sulforhodamine B assay. Format: functional, cell-based. Particulars: DU-145, 72 h.
Assay [2] can be described thus: Cytotoxicity against human PC3 cells incubated for 72 hrs by sulforhodamine B assay. Format: functional, cell-based. As to conditions: PC-3, 72 h.
Assay [3] relates to LNCaP. Kind of assay: Cytotoxicity against human LNCAP cells incubated for 72 hrs by sulforhodamine B assay. Format: functional, cell-based.
In assay [4] the test system is MDCK. Nature of the assay: Cytotoxicity against MDCK cells incubated for 72 hrs by sulforhodamine B assay. Format: cell-based. As to conditions: Canis lupus familiaris.
The subject of assay [5] is MDCK. Nature of the assay: Selectivity index, ratio of IC50 for MDCK cells to IC50 human MDA-MB-231 cells.
Assay [6] relates to MDCK. Kind of assay: Selectivity index, ratio of IC50 for MDCK cells to IC50 human MCF7 cells.
Assay [7] deals with DU-145. Nature of the assay: Selectivity index, ratio of IC50 for MDCK cells to IC50 human DU145 cells.
Assay [8] deals with MDCK. Kind of assay: Selectivity index, ratio of IC50 for MDCK cells to IC50 human PC3 cells.
For assay [9], the system named is LNCaP. Nature of the assay: Selectivity index, ratio of IC50 for MDCK cells to IC50 human LNCAP cells.
Another assay deals with T2, Heme oxygenase 1 (Rattus norvegicus, UniProt P06762).
T2 sequence (P06762 whole entry): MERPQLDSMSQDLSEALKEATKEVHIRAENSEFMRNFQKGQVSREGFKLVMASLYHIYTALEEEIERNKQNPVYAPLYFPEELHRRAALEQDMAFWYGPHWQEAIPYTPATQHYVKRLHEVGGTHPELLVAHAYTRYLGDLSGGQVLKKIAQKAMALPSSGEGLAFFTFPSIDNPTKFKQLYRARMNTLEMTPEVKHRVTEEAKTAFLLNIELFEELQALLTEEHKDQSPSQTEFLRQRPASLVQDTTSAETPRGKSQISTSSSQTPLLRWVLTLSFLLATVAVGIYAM
Kind of assay: Inhibition of HO1 in Sprague-Dawley rat spleen microsomal fraction assessed as reduction in bilirubin formation incubated for 60 mins by double beam spectrophotometry. Format: microsomes.

Broadly, the IC50 is the concentration needed to halve the response being measured. Consider `Brc1cccc(OCCCCn2cncn2)c1`, for which the IC50 on Heme oxygenase 2 was 11.2 µM.
On to `O=[N+]([O-])c1ccc(OCCCn2cncn2)cc1`, for which the IC50 at Heme oxygenase 2 was determined as 44.7 µM.
On the same count and under the same terms, for `c1ccc(OCCCn2cncn2)cc1` the value was greater than 100 µM.
The same measure, in the same setting: to `O=[N+]([O-])c1ccc(OCCCn2ccnc2)cc1` belongs 77.6 µM; to `O=[N+]([O-])c1ccc(OCCCCn2cncn2)cc1`, 41.7 µM.
On to `Brc1cccc(OCCCn2cncn2)c1`, for which the IC50 on Heme oxygenase 2 was determined as 33.9 µM.
The same measure, in the same setting: for `Ic1ccc(OCCCn2ccnc2)cc1` the value was 36.3 µM.
With `Ic1ccc(OCCCCn2ccnc2)cc1`, the 50% inhibitory concentration (IC50) in the assay on MDA-MB-231 was 55.1 µM; in the assay on MCF7, 27.7 µM; in the assay with DU-145 [1] it was 54.9 µM; in [2] it was 82.5 µM; in the assay on LNCaP [3] it was 16.9 µM; in the assay on MDCK [4], 103 µM. For the same compound, the “Ratio IC50” value in the assay with MDCK [5], with MDCK [6], in the assay with DU-145 [7], with MDCK [8] and in the assay on LNCaP [9] was 2 in each case.
As to `Brc1cccc(OCCCCCn2ccnc2)c1`, the IC50 on Heme oxygenase 1 is 42.6 µM; on Heme oxygenase 2, 0.9 µM.
On the same counts, the results for `Brc1cccc(OCCCCCCn2ccnc2)c1` are 34 µM and 41 µM.
For `Ic1ccc(OCCCCCn2ccnc2)cc1`, the IC50 is 44 µM on Heme oxygenase 1; 0.9 µM on Heme oxygenase 2; 27.4 µM with MDA-MB-231; 11 µM in the assay on MCF7; 27.7 µM with DU-145 [1]; 27.6 µM in assay [2]. Moreover, the values for the 50% inhibitory concentration (IC50) in the assay on LNCaP [3] and with MDCK [4] were 27.8 µM and 55.1 µM, respectively. The “Ratio IC50” value with MDCK [5], with MDCK [6], with DU-145 [7], with MDCK [8] and with LNCaP [9] was 2 each time.
`Ic1ccc(OCCCCCCn2ccnc2)cc1`: the figures for the IC50 at Heme oxygenase 1 and at Heme oxygenase 2 were 42 µM and greater than 100 µM, respectively.
For `c1ccc2oc(SCCCn3ccnc3)nc2c1`, in that order: 16.9 µM and 49 µM.
For `c1ccc2oc(SCCCCn3ccnc3)nc2c1`, the IC50 at Heme oxygenase 1 worked out at 30.9 µM; at Heme oxygenase 2 it was 74.1 µM.
For the compound `c1ccc2sc(SCCCn3ccnc3)nc2c1`, the IC50 on Heme oxygenase 1 amounted to 0.9 µM; at Heme oxygenase 2, 12.5 µM; in the assay on MDA-MB-231 it was 55.1 µM; in the assay on MCF7 it was 27.5 µM; in the assay with DU-145 [1], 54.8 µM; in assay [2], 82.6 µM. The IC50 worked out at 55 µM with LNCaP [3] and 82.4 µM with MDCK [4]. The “Ratio IC50” value in the assay with MDCK [5], in the assay with MDCK [6], with DU-145 [7], with MDCK [8] and with LNCaP [9] was 2 each time.
`c1ccc2sc(SCCCCn3ccnc3)nc2c1`: the IC50 was determined as 1 µM on Heme oxygenase 1; 0.8 µM at Heme oxygenase 2; 55.1 µM with MDA-MB-231; 27.5 µM with MCF7; 82.2 µM in the assay with DU-145 [1]; 82.5 µM in assay [2]. In addition, the IC50 with LNCaP [3] came to 54.7 µM; with MDCK [4], 58.5 µM. The “Ratio IC50” value in the assay on MDCK [5], in the assay on MDCK [6], with DU-145 [7], in the assay with MDCK [8] and in the assay with LNCaP [9] was 2 each time.
As for `c1ccc2sc(SCCCCCn3ccnc3)nc2c1`, the values for the IC50 at Heme oxygenase 1 and at Heme oxygenase 2 were 39.8 µM and 11.2 µM, respectively.
For `Clc1ccc2sc(SCCCn3ccnc3)nc2c1`, in that order: 18.4 µM and 0.9 µM.
On the same counts, the results for `Clc1ccc2sc(SCCCCn3ccnc3)nc2c1` are greater than 100 µM and 0.9 µM.
On the same counts, the results for `Clc1ccc2sc(SCCCCCn3ccnc3)nc2c1` are 36.3 µM and 0.9 µM.
For the compound `O=c1oc2ccccc2n1CCCCn1ccnc1`, the figures for the IC50 on Heme oxygenase 1 and on Heme oxygenase 2 were 17.7 µM and 35.5 µM, respectively.
Take `O=c1sc2ccccc2n1CCCn1ccnc1`: the IC50 turned out to be 16.6 µM on Heme oxygenase 1 and 28.8 µM at Heme oxygenase 2.
In the case of `Brc1cccc(OCCCCCn2cncn2)c1`, the values for the half-maximal inhibitory concentration (IC50) on Heme oxygenase 1 and on Heme oxygenase 2 were 20 µM and 0.8 µM, respectively.
Consider `Brc1cccc(OCCCCn2ccnc2)c1`, for which the IC50 was 27.5 µM with MDA-MB-231; 27.6 µM in the assay with MCF7; 46.6 µM with DU-145 [1]; 54.9 µM in [2]; 27.6 µM in the assay on LNCaP [3]; 82.4 µM with MDCK [4]. Further, the “Ratio IC50” value in the assay on MDCK [5], with MDCK [6], in the assay with DU-145 [7], in the assay with MDCK [8] and in the assay on LNCaP [9] was 2 throughout.
